Values of other authors in patent publication US20090155388A1, “WEIGHT PHYTO-NUTRACEUTICAL SYNERGISTIC COMPOSITION” (priority 2006, published 2009).

Columns and labels:
[1] = test system: bacterial resistance mechanism (multidrug pump); settings: in vitro
[2] = 89 mildly overweight women
[3] = in vivo
lipoprotein lipase (LPL) = settings: vanadate-stimulated
[4] = third ventricle (i.c.v.) administration
[5] = female mice
[6] = 10 studies
[7] = 36 obese patients, maintenance period
[8] = test system: FAS (fatty acid synthase)

COc1cc([C@H]2Oc3cc(-c4cc(=O)c5c(O)cc(O)cc5o4)cc(OC)c3O[C@@H]2CO)ccc1O (racemic) [5′-methoxyhydnocarpin (5′-MHC), 5′-methoxyhydnocarpin]
potentiation of activity of berberine alkaloids [1]: strongly potentiated

O=C(O)CC(O)(C(=O)O)C(O)C(=O)O (single isomer, unassigned; (-)) [(−)-Hydroxycitric acid (HCA), (−)-Hydroxycitric acid]
reduction of body weight [2]: significantly greater reduction of body weight | body weight, feed consumption, adverse effects [3]: significant decrease in body weight and reduction in feed consumption without any adverse effects

C[C@@H]1O[C@@H](O[C@H]2C(=O)c3c(O)cc(O)cc3O[C@@H]2c2ccc(O)c(O)c2)[C@H](O)[C@H](O)[C@H]1O [Astilbin, astilbin]
release of LPL activity (lipoprotein lipase (LPL)): enhanced the release of lipoprotein lipase (LPL) activity

C/C=C(\C)C(=O)O[C@@H]1C[C@H]2[C@@H](CC=C3C[C@@H](O[C@H]4C[C@H](OC)[C@H](O[C@H]5C[C@H](OC)[C@H](O[C@@H]6O[C@H](C)[C@@H](O)[C@H](OC)[C@H]6O)[C@@H](C)O5)[C@@H](C)O4)CC[C@@]32C)[C@@]2(O)CC[C@H](C(C)=O)[C@@]12C [P57AS3]
increase of ATP content (hypothalamic neurons): 50-150% | reduction of subsequent 24-h food intake [4]: 40-60%

CNCCC(Oc1ccc(C(F)(F)F)cc1)c1ccccc1 (stereo not drawn) [fluoxetine]
hyperphagic effect of 5-HT depletor, 5-HT1A agonist, 5-HT antagonist and glucose antimetabolite [5]: significantly antagonized

Chromium picolinate
effect on reducing body weight compared with placebo [6]: relatively small effect | lean body mass [7]: able to increase lean body mass | insulin sensitivity (37 patients, with sulfonylurea agents): significantly improves insulin sensitivity | body weight gain and visceral fat accumulation (compared with placebo): significantly attenuated body weight gain and visceral fat accumulation

catechin gallate [(−)-CG]
inhibition of FAS [8]: very potent inhibitor of FAS
